EC50 data for one compound are collected here from patent publication US20160083420A1, “DERIVATIVES OF DOLASTATIN 10 AND AURISTATINS” (PIERRE FABRE MEDICAMENT, priority 2013, published 2016).

This assay concerns MDA-MB-231 (breast adenocarcinoma—ATCC HTB-26). The experiment in a line: ATPlite antiproliferative assay on MDA-MB-231 cells. Type of assay: cell-based. Conditions: Homo sapiens, MDA-MB-231, 72 h, MDA-MB-231, 72 h drug treatment, values in text, read-out: EC50, antiproliferative activity on the MDA-MB-231 cell line. The method, then: A549 (Non Small Cell Lung Cancer—ATCC CCL-185) and MDA-MB-231 (breast adenocarcinoma—ATCC HTB-26) cells were cultured in Minimum Essential Medium Eagle (MEM) with 5% fetal calf serum (FCS) and Dulbecco's modified Eagle Medium (DMEM) with 10% FCS respectively. MCF7 (breast ductal carcinoma—ATCC HTB-22) and SN-12C (kidney carcinoma—ATCC) cells were maintained in RPMI1640 medium (without phenol red for MCF7 cells) containing 10% FCS. All the media were supplemented with fungizone (1.25 μg/mL) and penicillin-streptomycin (100 U/100 μg/mL). Cells were cultured under standard conditions in an incubator at 37° C., 5% CO2 and 95% atmospheric humidity.
Compounds according to the invention were investigated for their antiproliferative activity using an ATPlite proliferation assay (Perkin Elmer, Villebon sur Yvette, France) on a comprehensive panel of 4 cell lines. […] On day 4, cell viability was evaluated by dosing the ATP released by viable cells. The number of viable cells was analyzed in comparison with the number of solvent treated cells. The EC50 values were determined with curve fitting analysis (non linear regression model with a sigmoidal dose response, variable hill slope coefficient), performed with the algorithm provided by the GraphPad Software (GraphPad Software Inc., CA, USA).

SMILES strings stand for the structures. Square brackets hold non-standard residues; d marks the D form. Peptide text beside a SMILES is read from it. * marks the point of attachment. Dolaproine = CO[C@@H]([C@@H]1CCCN1)[C@@H](C)C(=O)O; Dil = CC[C@H](C)[C@H](NC)[C@@H](CC(=O)O)OC; X5 = CC(C)[C@@H](C(=O)*)N(C)Cc1ccncc1

In the case of `CC[C@H](C)[C@@H]([C@@H](CC(=O)N1CCC[C@H]1[C@H](OC)[C@@H](C)C(=O)N[C@@H](Cc1ccccc1)C(=O)OC)OC)N(C)C(=O)[C@@H](NC(=O)[C@H](C(C)C)N(C)Cc1ccncc1)C(C)C` [Example 3] (X5-V[Dil][Dolaproine]F-OMe), the EC50 came out at 0.41 nM.
